Data on two molecules can be found in patent publication US5344927A, “Tetrahydrobenzimidazole derivatives and pharmaceutical compositions containing same” (Yamanouchi Pharmaceutical Co., Ltd., priority 1989, dated 1994).

This experiment concerns the target T1, 5-HT3 -receptor (Rattus norvegicus, UniProt P35563).
T1 construct: Transient reduction in heart rate and blood pressure induced by intravenous administration of serotonin; from tissue
T1 sequence (P35563 24-483): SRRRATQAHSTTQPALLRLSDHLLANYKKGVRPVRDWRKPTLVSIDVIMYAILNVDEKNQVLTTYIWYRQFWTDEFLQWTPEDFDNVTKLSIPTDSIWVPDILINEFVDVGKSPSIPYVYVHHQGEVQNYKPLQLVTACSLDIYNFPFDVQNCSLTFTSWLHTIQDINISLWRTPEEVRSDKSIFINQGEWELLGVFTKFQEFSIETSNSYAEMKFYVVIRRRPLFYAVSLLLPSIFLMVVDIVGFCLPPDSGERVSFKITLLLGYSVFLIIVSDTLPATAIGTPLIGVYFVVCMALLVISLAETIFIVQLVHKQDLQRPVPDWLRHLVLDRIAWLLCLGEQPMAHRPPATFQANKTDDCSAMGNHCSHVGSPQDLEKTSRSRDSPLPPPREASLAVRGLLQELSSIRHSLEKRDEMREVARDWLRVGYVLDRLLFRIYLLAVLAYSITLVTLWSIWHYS
The experiment in a line: Antagonism against 5-HT3-receptor: serotonin-induced Bezold-Jarish (BJ) reflex in anesthetized rats. The conditions noted are these: iv, 10 min, i.v., urethane-anesthetized Wistar male rats, given 10 minutes before serotonin, read-out: BJ Reflex Inhibitory Activity ED50. Type of experiment: in vivo. The method, then: Nine-week-old Wistar male rats were anesthetized by intraperitoneal administration of 1 g/kg of urethane, and blood pressure and heart rate were measured under artificial respiration. Transient reduction in heart rate and blood pressure induced by intravenous administration of serotonin or 2-methylserotonin which is a selective agonist of 5-HT3 was taken as an index of the reaction via 5-HT3 receptor [Bezold-Jarish reflex; Paintal, A. S., Pysiolo. Rev., Vol. 53, p. 159 (1973)].
Inhibitory activity of the compound of the present invention on serotonin-induced Bezold-Jarish (BJ) reflex in rats is shown in Table 1 below.

As to `O=C(C1CCc2nc[nH]c2C1)N1CCc2ccccc21.O=C(O)/C=C/C(=O)O` (centres unmarked) [Example 2, 5-[(2,3-Dihydroindol-1-yl)carbonyl]-4,5,6,7-tetrahydrobenzimidazole fumarate], the ED50 stood at 0.29 µg/kg.
Then `O=C(C1CCc2nc[nH]c2C1)n1c(=O)[nH]c2ccccc21` (centres unmarked) [Example 9, 1-[(4,5,6,7-tetrahydrobenzimidazol-5-yl)carbonyl]-2,3-dihydrobenzimidazol-2-one], with 0.8 µg/kg.

What is called ED50 is the dose at which the effect has come halfway, by size or by number of responders.
